Patent US20060269621A1, “Novel therapeutic extracts and molecules for degenerative conditions” (Avestha Gengraine Technologies Pvt.Ltd., priority 2003, published 2006)

Legend:
[1] = system: 3T3-L1 adipocytes; assay: Standardization / validation of [3H]-glucose uptake 3T3-L1 assay with insulin and glitazone; format: cell-based; conditions: for [3H]-glucose uptake with insulin: in cpm (unit assumed); for Counts with insulin: insulin alone control
Experimental: In the first set of assays (insulin control and the first 9 samples) cells were grown in 96 well plates, and assayed for 3H-deoxyglucose uptake. Briefly cells were treated with plant extract overnight and immediately before the assay got washed with Krebs-Ringer-HEPES Buffer [20 mM HEPES, pH 7.4, 136 mM NaCl, 4.7 mM KCl, 1.5 mM MgSO4] at 37° C. for 30 minutes and then treated with insulin. Glucose uptake reaction was initiated by adding 0.1 mM deoxy-glucose containing deoxy-tritiated-glucose containing 12.2 kBq/mL. After 30 minutes of 37° C. incubation, the reaction was terminated by adding 40 uM cytochalasin-B. Cells were washed 3× with ice cold KRH buffer and solubilized with 100 μl of 10% Triton-X with Ca/Mg free PBS. Radioactivity incorporated into cells was measured on a top count microplate scintillation counter. Results are being interpreted as mean±SD of counts per minute.
As the basal counts were low, the assay design was changed to a 24-well format and the cell numbers increased from 100,000 cells per well to 2 million cells per well.
The two controls in this experiment were: (a) [^3H]-deoxyglucose uptake by cells in the absence of both insulin and plant extracts, and (b) [^3H]-deoxyglucose uptake by cells in the presence of insulin and absence of plant extracts.

[2] = system: 3T3-L1 adipocytes; assay: as above; format: cell-based; conditions: 48 hrs

Compound	Counts per minute ([1]; Glitazone 150 μg, 48 hrs)	Counts per minute ([2]; Glitazone 60 μg)	Counts per minute ([2]; Glitazone 300 μg)	[3H]-glucose uptake with insulin ([1]; 100,000 cells/well, Insulin 1 nM)	[3H]-glucose uptake with insulin ([1]; 100,000 cells/well, Insulin 10 nM)	[3H]-glucose uptake with insulin ([1]; 100,000 cells/well, Insulin 100 nM)	[3H]-glucose uptake with insulin ([1]; 2,000,000 cells/well, Insulin 10 nM)	[3H]-glucose uptake with insulin ([1]; 2,000,000 cells/well, Insulin 25 nM)	[3H]-glucose uptake with insulin ([1]; 2,000,000 cells/well, Insulin 100 nM)	Counts per minute ([1]; Insulin 25 nM, 15 min)	Counts per minute ([1]; Insulin 25 nM, 30 min)	Counts per minute ([1]; Insulin 25 nM, 60 min)	[3H]-deoxyglucose uptake, Counts per minute ([1]; control: cells + insulin, no plant extract)	Counts with insulin ([1]; Table 15, first of two value columns)	Counts with insulin ([1]; Table 15, second of two value columns)
O=C1NC(=O)C(Cc2ccc(O)cc2)S1 (stereo not drawn) [Glitazone]	15900.4 Counts per minute	7886 Counts per minute	47971.9 Counts per minute	–	–	–	–	–	–	–	–	–	–	–	–
Insulin	–	–	–	60.5	502	1850	36562	38538	55258	48026.7 Counts per minute	24699.9 Counts per minute	28103.3 Counts per minute	36561 Counts per minute	33065.1 Counts per minute	32352.28 Counts per minute
